Usually IC50 stands for the concentration at which inhibition is half-maximal. The low end stands for higher potency, the high end for lower potency.

37 compounds from patent US20060069084A1, “Methods of inhibiting kinases” (priority 2001, published 2006) can be followed below.

Assay type in all cases: biochemical
What all share (settings): inhibit 50% of activity at 50 μM

Test [1] has as its target T1, TYK2 (Homo sapiens, UniProt P29597).
T1 construct: The kinase domain of humanTYK2 was amplified from A549 mRNA; His tag (from pBlueBacHis2A vector; nickel chelate purification) (N); made in house; host or cells: baculovirus; virus made in Sf9, large-scale expression in High Five insect cells
T1 sequence (P29597 897-1176 limits assumed): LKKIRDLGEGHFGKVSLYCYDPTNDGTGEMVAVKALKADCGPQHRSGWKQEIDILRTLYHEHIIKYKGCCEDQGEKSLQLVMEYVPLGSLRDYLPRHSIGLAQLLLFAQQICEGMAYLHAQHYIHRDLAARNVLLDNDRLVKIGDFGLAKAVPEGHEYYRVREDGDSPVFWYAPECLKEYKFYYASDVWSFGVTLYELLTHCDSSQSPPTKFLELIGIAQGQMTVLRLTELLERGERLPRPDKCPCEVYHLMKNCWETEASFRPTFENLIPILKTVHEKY
The test is described as follows: TYK2 kinase domain capture-based ELISA kinase assay. A digest of the protocol: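 His-tagged human TYK2 kinase domain expressed in baculovirus-infected insect cells and Ni-affinity purified. Biotinylated peptide substrate (5 μM final); phosphotyrosine captured on avidin plate and detected by peroxidase-linked PY20 antibody ELISA.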
In general terms: ELISA stands for enzyme-linked immunosorbent assay.

The target of test [2] is T2, JAK1 (Homo sapiens, UniProt P23458).
T2 construct: The kinase domain of humanJAK1 was amplified from U937mRNA; His tag (from pFastBac HTb vector; nickel chelate purification) (N); made in house; host or cells: baculovirus; virus made in Sf9, large-scale expression in High Five insect cells
The test is described as follows: JAK1 kinase domain capture-based ELISA kinase assay. The method, boiled down:
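His-tagged human JAK1 kinase domain was expressed via baculovirus in High Five insect cells and purified on nickel chelate resin. Phosphotyrosine was quantified by ELISA with peroxidase-linked PY20 after capture on avidin plates.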

Test [3] deals with T3, JAK2 (Homo sapiens, UniProt O60674).
T3 construct: The kinase domain of humanJAK2 was amplified from U937mRNA; His tag (from pFastBac HTc vector; nickel chelate purification) (N); made in house; host or cells: baculovirus; virus made in Sf9, large-scale expression in High Five insect cells
The test is described as follows: JAK2 kinase domain capture-based ELISA kinase assay. A digest of the protocol: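 His-tagged human JAK2 kinase domain was baculovirus-expressed in High Five insect cells and nickel-purified. Phosphotyrosine was captured on avidin plates and detected by ELISA with peroxidase-linked PY20.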

The target of test [4] is T4, JAK3 (Homo sapiens, UniProt P52333).
T4 construct: The kinase domain of humanJAK3 was amplified from U937mRNA; His tag (from pFastBac HTb vector; nickel chelate purification) (N); made in house; host or cells: baculovirus; virus made in Sf9, large-scale expression in High Five insect cells
Kind of test: JAK3 kinase domain capture-based ELISA kinase assay. A digest of the protocol: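 The human JAK3 kinase domain was His-tagged, baculovirus-expressed in High Five cells and nickel-affinity purified. Tyrosine phosphorylation was quantified on avidin-coated ELISA plates with peroxidase-linked anti-phosphotyrosine antibody PY20.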

The structures appear in SMILES notation. A value given as a limit tells only on which side of the number the result lay.

T2 sequence (P23458 875-1153 limits assumed): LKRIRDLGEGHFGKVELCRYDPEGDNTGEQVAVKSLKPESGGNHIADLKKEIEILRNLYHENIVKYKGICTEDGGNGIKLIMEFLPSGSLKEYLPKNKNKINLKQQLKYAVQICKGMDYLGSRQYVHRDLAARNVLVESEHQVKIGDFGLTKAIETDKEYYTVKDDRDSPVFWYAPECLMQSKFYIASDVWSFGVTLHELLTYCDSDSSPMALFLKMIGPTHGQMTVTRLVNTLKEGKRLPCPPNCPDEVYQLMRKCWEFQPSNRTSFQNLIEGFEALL
T4 sequence (P52333 822-1111 limits assumed): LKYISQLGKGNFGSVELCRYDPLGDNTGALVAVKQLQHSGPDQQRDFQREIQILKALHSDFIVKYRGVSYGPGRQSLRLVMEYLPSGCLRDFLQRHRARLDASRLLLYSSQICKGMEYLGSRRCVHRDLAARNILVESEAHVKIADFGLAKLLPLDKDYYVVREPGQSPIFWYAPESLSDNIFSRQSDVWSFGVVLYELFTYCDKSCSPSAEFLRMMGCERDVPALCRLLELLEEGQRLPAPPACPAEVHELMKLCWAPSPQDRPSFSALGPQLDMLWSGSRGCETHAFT
T3 sequence (O60674 849-1124 limits assumed): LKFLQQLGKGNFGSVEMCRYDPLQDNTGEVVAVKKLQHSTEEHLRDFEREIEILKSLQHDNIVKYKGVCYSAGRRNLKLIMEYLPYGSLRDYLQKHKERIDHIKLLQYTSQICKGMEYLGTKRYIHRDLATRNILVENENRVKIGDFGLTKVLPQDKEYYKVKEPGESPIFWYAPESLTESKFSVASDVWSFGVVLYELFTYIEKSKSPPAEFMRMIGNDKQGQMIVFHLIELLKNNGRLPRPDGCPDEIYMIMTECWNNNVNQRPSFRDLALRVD

Take `CCCC/C=C/c1cn2ccnc2c(NCc2ccncc2)n1`: the IC50 was over 50 µM in test [1] (Table 6), over 50 µM in test [2] (Table 6), over 50 µM in test [3] (Table 6) and under 50 µM in test [4] (Table 6).

`c1cncc(-c2cn3ccnc3c(Nc3ccc(N4CCOCC4)cc3)n2)c1` [drawing 131]: the IC50 is under 50 µM in test [1] (Table 6), under 50 µM in test [2] (Table 6), under 50 µM in test [3] (Table 6) and over 50 µM in test [4] (Table 6).

Regarding `CN1CCN(c2nc(-c3cccnc3)cn3ccnc23)CC1`, the IC50 is over 50 µM in test [1] (Table 6), under 50 µM in test [2] (Table 6), over 50 µM in test [3] (Table 6) and over 50 µM in test [4] (Table 6).

Take `OCc1ccccc1-c1cn2ccnc2c(Nc2ccc(N3CCOCC3)cc2)n1` [drawing 142]: the IC50 in test [1] (Table 6) is over 50 µM; in test [2] (Table 6) it was under 50 µM; in test [3] (Table 6), under 50 µM; in test [4] (Table 6), over 50 µM.

`CN(C)CCNC(=O)c1cccc(-c2cncc(N3CCN(c4ccccc4C#N)CC3)n2)c1` [CYT34503]: the IC50 in test [1] (Table 3), in test [2] (Table 3), in test [3] (Table 3) and in test [4] (Table 3) was under 50 µM in each case.

As to `c1ccc2cc(-c3cn4ccnc4c(Nc4ccc(N5CCOCC5)cc4)n3)ccc2c1`, the IC50 was over 50 µM in test [1] (Table 6), under 50 µM in test [2] (Table 6), under 50 µM in test [3] (Table 6) and over 50 µM in test [4] (Table 6).

For the compound `CCCC/C=C/c1cn2ccnc2c(Nc2ccc(OC)nc2)n1`, the IC50 in test [1] (Table 6) was over 50 µM; in test [2] (Table 6) it was over 50 µM; in test [3] (Table 6), under 50 µM; in test [4] (Table 6) it was over 50 µM.

As to `c1ccc(CNc2cncc(-c3cccnc3)n2)cc1` [CYT24803], the IC50 in test [1] (Table 3), in test [2] (Table 3), in test [3] (Table 3) and in test [4] (Table 3) was under 50 µM in each case.

Take `CCC(CO)Nc1nc(-c2ccco2)cn2ccnc12` (stereo not shown): the IC50 is over 50 µM in test [1] (Table 6), under 50 µM in test [2] (Table 6), under 50 µM in test [3] (Table 6) and under 50 µM in test [4] (Table 6).

Consider `OCc1ccccc1-c1cn2ccnc2c(Nc2ccc(N3CCOCC3)cc2)n1` [drawing 64], for which the IC50 in test [1] (Table 5), in test [2] (Table 5), in test [3] (Table 5) and in test [4] (Table 5) was under 50 µM throughout.

As for `OCc1cccc(-c2cncc(NCc3ccccc3)n2)c1` [CYT20506], the IC50 in test [1] (Table 3), in test [2] (Table 3), in test [3] (Table 3) and in test [4] (Table 3) was under 50 µM in each case.

For the compound `c1cncc(-c2cn3ccnc3c(NCCc3ccncc3)n2)c1`, the IC50 in test [1] (Table 6) is over 50 µM; in test [2] (Table 6) it was over 50 µM; in test [3] (Table 6), over 50 µM; in test [4] (Table 6) it was under 50 µM.

`O=C(O)c1ccc(-c2cn3ccnc3c(Nc3ccc(Cl)cc3)n2)cc1`: the IC50 in test [1] (Table 6), in test [2] (Table 6), in test [3] (Table 6) and in test [4] (Table 6) was under 50 µM throughout.

For the compound `c1coc(-c2cn3ccnc3c(Nc3ccc(N4CCOCC4)cc3)n2)c1`, the IC50 was under 50 µM in test [1] (Table 6), under 50 µM in test [2] (Table 6), under 50 µM in test [3] (Table 6) and over 50 µM in test [4] (Table 6).

In the case of `CC(=O)Nc1cccc(-c2cncc(N[C@H](C)c3ccccc3)n2)c1` [CYT32102], the IC50 in test [1] (Table 3), in test [2] (Table 3), in test [3] (Table 3) and in test [4] (Table 3) was under 50 µM each time.

In the case of `CCN(CCO)c1ccc(Nc2nc(Br)cn3ccnc23)cc1` [drawing 101], the IC50 is under 50 µM in test [1] (Table 6), under 50 µM in test [2] (Table 6), under 50 µM in test [3] (Table 6) and over 50 µM in test [4] (Table 6).

Regarding `CC(=O)Nc1ccc(Nc2nc(-c3ccccc3F)cn3ccnc23)cc1`, the IC50 in test [1] (Table 6), in test [2] (Table 6), in test [3] (Table 6) and in test [4] (Table 6) was under 50 µM each time.

With `CN(C)CCNC(=O)c1cccc(-c2cn3ccnc3c(Nc3ccc(Cl)cc3)n2)c1`, the IC50 in test [1] (Table 6) is over 50 µM; in test [2] (Table 6), under 50 µM; in test [3] (Table 6), under 50 µM; in test [4] (Table 6), over 50 µM.

For the compound `COc1cc(-c2cn3ccnc3c(NCC3CC3)n2)ccc1O`, the IC50 in test [1] (Table 6) was over 50 µM; in test [2] (Table 6), under 50 µM; in test [3] (Table 6) it was over 50 µM; in test [4] (Table 6), over 50 µM.

As to `CC(=O)Nc1cccc(-c2cn3ccnc3c(Nc3ccc(N4CCOCC4)cc3)n2)c1`, the IC50 in test [1] (Table 6) is under 50 µM; in test [2] (Table 6), under 50 µM; in test [3] (Table 6) it was under 50 µM; in test [4] (Table 6), over 50 µM.

Consider `CC(C)[C@H](CO)Nc1nc(-c2cccc(N)c2)cn2ccnc12`, for which the IC50 in test [1] (Table 5), in test [2] (Table 5), in test [3] (Table 5) and in test [4] (Table 5) was under 50 µM throughout.

`c1cncc(-c2cn3ccnc3c(Nc3ccc(N4CCOCC4)cc3)n2)c1` [drawing 62]: the IC50 in test [1] (Table 5), in test [2] (Table 5), in test [3] (Table 5) and in test [4] (Table 5) was under 50 µM each time.

Turning to `CCCC/C=C/c1cn2ccnc2c(NCCc2cccnc2)n1`, the IC50 was over 50 µM in test [1] (Table 6), over 50 µM in test [2] (Table 6), over 50 µM in test [3] (Table 6) and under 50 µM in test [4] (Table 6).

As to `Nc1cccc(-c2cn3ccnc3c(Nc3ccccc3)n2)c1` [drawing 71], the IC50 in test [1] (Table 5), in test [2] (Table 5), in test [3] (Table 5) and in test [4] (Table 5) was under 50 µM in each case.

`Brc1cn2ccnc2c(Nc2ccc(N3CCOCC3)cc2)n1` [drawing 100]: the IC50 in test [1] (Table 6) is under 50 µM; in test [2] (Table 6), under 50 µM; in test [3] (Table 6), under 50 µM; in test [4] (Table 6), over 50 µM.

`Oc1ccc(-c2cn3ccnc3c(N3CCOCC3)n2)cc1` [drawing 75]: the IC50 in test [1] (Table 5), in test [2] (Table 5), in test [3] (Table 5) and in test [4] (Table 5) was under 50 µM in each case.

Take `CCN(CCO)c1ccc(Nc2nc(-c3cccc4ccccc34)cn3ccnc23)cc1` [drawing 68]: the IC50 in test [1] (Table 5), in test [2] (Table 5), in test [3] (Table 5) and in test [4] (Table 5) was under 50 µM throughout.

For `CN(C)CCNC(=O)c1ccc(-c2cn3ccnc3c(Nc3ccc(C(=O)O)cc3)n2)cc1`, the IC50 in test [1] (Table 6), in test [2] (Table 6), in test [3] (Table 6) and in test [4] (Table 6) was under 50 µM throughout.

For the compound `O=C(O)c1cccc(-c2cn3ccnc3c(Nc3ccc4cn[nH]c4c3)n2)c1`, the IC50 in test [1] (Table 6) was under 50 µM; in test [2] (Table 6), under 50 µM; in test [3] (Table 6) it was under 50 µM; in test [4] (Table 6) it was over 50 µM.

As for `O=C(O)CCc1ccc(-c2cn3ccnc3c(NCc3ccco3)n2)cc1`, the IC50 in test [1] (Table 6) is under 50 µM; in test [2] (Table 6), over 50 µM; in test [3] (Table 6) it was over 50 µM; in test [4] (Table 6), under 50 µM.

For the compound `c1ccc(Nc2nc(-c3ccco3)cn3ccnc23)cc1`, the IC50 in test [1] (Table 6) was under 50 µM; in test [2] (Table 6), over 50 µM; in test [3] (Table 6), under 50 µM; in test [4] (Table 6), over 50 µM.

For the compound `Fc1ccccc1-c1cn2ccnc2c(NCc2ccccn2)n1`, the IC50 in test [1] (Table 5), in test [2] (Table 5), in test [3] (Table 5) and in test [4] (Table 5) was under 50 µM in each case.

Turning to `COc1ccc(Nc2nc(-c3c(C)cccc3C)cn3ccnc23)cn1`, the IC50 was over 50 µM in test [1] (Table 6), over 50 µM in test [2] (Table 6), over 50 µM in test [3] (Table 6) and under 50 µM in test [4] (Table 6).

`Oc1ccc(-c2cn3ccnc3c(Nc3ccccc3)n2)cc1`: the IC50 in test [1] (Table 6) was over 50 µM; in test [2] (Table 6), under 50 µM; in test [3] (Table 6), under 50 µM; in test [4] (Table 6) it was over 50 µM.

For `Fc1ccc(-c2cncc(N3CCN(CCN4CCCC4)CC3)n2)cc1Cl` [CY734702], the half-inhibitory concentration (IC50) in test [1] (Table 3), in test [2] (Table 3), in test [3] (Table 3) and in test [4] (Table 3) was under 50 µM each time.

Take `c1cn2cc(-c3ccc4c(c3)OCO4)nc(NC3CC3)c2n1`: the IC50 in test [1] (Table 6) was under 50 µM; in test [2] (Table 6), under 50 µM; in test [3] (Table 6), over 50 µM; in test [4] (Table 6), over 50 µM.

Consider `c1cc(-c2cn3ccnc3c(Nc3ccc(N4CCOCC4)cc3)n2)ccn1` [drawing 61], for which the IC50 in test [1] (Table 5), in test [2] (Table 5), in test [3] (Table 5) and in test [4] (Table 5) was under 50 µM in each case.
